In PubChem BioAssay AID256 (DTP/NCI, 2004):
“And” between values parts separate entries of the source, which are not always exact repeats. Identical values can stand only once. Inconclusive results and toxic doses are left out. The calls were made as follows: active = survival T/C of 150% or more; inactive = T/C below 125% in these data.

Tested on: CD2F1 mice, L1210 leukemia ip, survival T/C
Test: NCI In Vivo Anticancer Drug Screen. Data for tumor model L1210 Leukemia (intraperitoneal) in CD2F1 (CDF1) mice
Details: higher = longer survival
How it was run: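 Mice carrying a transplanted tumor received test compound or vehicle alone. The value is the measurement in the treated group divided by that in the vehicle-treated control group.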

[1] = endpoint: mean survival time, dose: 12.5 mg/kg/injection, schedule: Q01DX009 (ip), vehicle: saline with Tween-80
[2] = endpoint: mean survival time, dose: 25.0 mg/kg/injection, schedule: Q01DX009 (ip), vehicle: saline with Tween-80
[3] = endpoint: mean survival time, dose: 50.0 mg/kg/injection, schedule: Q01DX009 (ip), vehicle: saline with Tween-80
[4] = endpoint: mean survival time, dose: 100.0 mg/kg/injection, schedule: Q01DX009 (ip), vehicle: saline with Tween-80
[5] = endpoint: mean survival time, dose: 200.0 mg/kg/injection, schedule: Q01DX009 (ip), vehicle: saline with Tween-80
[6] = endpoint: mean survival time, dose: 400.0 mg/kg/injection, schedule: Q01DX009 (ip), vehicle: saline with Tween-80
[7] = endpoint: mean survival time, dose: 100.0 mg/kg/injection, schedule: Q04DX002 (ip), vehicle: saline with Tween-80
[8] = endpoint: mean survival time, dose: 100.0 mg/kg/injection, schedule: Q04DX003 (ip), vehicle: saline
[9] = endpoint: mean survival time, dose: 200.0 mg/kg/injection, schedule: Q04DX003 (ip), vehicle: saline
[10] = endpoint: mean survival time, dose: 400.0 mg/kg/injection, schedule: Q04DX003 (ip), vehicle: saline
[11] = endpoint: mean survival time, dose: 100.0 mg/kg/injection, schedule: Q04DX003 (ip), vehicle: saline with Tween-80
[12] = endpoint: mean survival time, dose: 200.0 mg/kg/injection, schedule: Q04DX003 (ip), vehicle: saline with Tween-80
[13] = endpoint: mean survival time, dose: 400.0 mg/kg/injection, schedule: Q04DX003 (ip), vehicle: saline with Tween-80
[14] = endpoint: mean survival time, dose: 100.0 mg/kg/injection, schedule: Q01DX001 (ip), vehicle: saline with Tween-80
[15] = endpoint: mean survival time, dose: 200.0 mg/kg/injection, schedule: Q01DX001 (ip), vehicle: saline with Tween-80
[16] = endpoint: mean survival time, dose: 400.0 mg/kg/injection, schedule: Q01DX001 (ip), vehicle: saline with Tween-80
[17] = endpoint: mean survival time, dose: 100.0 mg/kg/injection, schedule: Q01DX001 (ip), vehicle: saline
[18] = endpoint: mean survival time, dose: 200.0 mg/kg/injection, schedule: Q01DX001 (ip), vehicle: saline
[19] = endpoint: mean survival time, dose: 400.0 mg/kg/injection, schedule: Q01DX001 (ip), vehicle: saline

Measured: T/C

Nc1n[nH]c(=S)n1-c1ccccc1
inactive: endpoint: mean survival time, dose: 50.0 mg/kg/injection, schedule: Q01DX009 (ip), vehicle: acetone 98 % of control | endpoint: mean survival time, dose: 100.0 mg/kg/injection, schedule: Q01DX009 (ip), vehicle: acetone 93 % of control | endpoint: mean survival time, dose: 200.0 mg/kg/injection, schedule: Q01DX009 (ip), vehicle: acetone 98 % of control

O=CC=O
inactive: [1] 100 % of control and 106 % of control | [2] 103 % of control and 107 % of control | [3] 97 % of control and 106 % of control | [4] 115 % of control and 107 % of control | [5] 106 % of control and 111 % of control | [6] 120 % of control and 108 % of control

NNC(=O)OCc1ccccc1
inactive: [7] 100 % of control

O=C1CCC2=C(CCC3(C2)OCCO3)N1
inactive: [4] 94 % of control | [8] 96 % of control | [5] 102 % of control | [9] 103 % of control | [6] 90 % of control | [10] 100 % of control

COc1ccc(CC(=O)C(C)C(O)(C(F)(F)F)C(F)(F)F)cc1OC (stereo not given)
inactive: [11] 108 % of control | [12] 102 % of control | [13] 103 % of control

O=C(O)c1ccc(N/N=C/C(F)(F)F)cc1
inactive: endpoint: mean survival time, dose: 1.87 mg/kg/injection, schedule: Q01DX009 (ip), vehicle: saline 107 % of control | endpoint: mean survival time, dose: 3.75 mg/kg/injection, schedule: Q01DX009 (ip), vehicle: saline 105 % of control | endpoint: mean survival time, dose: 6.25 mg/kg/injection, schedule: Q01DX001 (ip), vehicle: saline with Tween-80 97 % of control | endpoint: mean survival time, dose: 7.5 mg/kg/injection, schedule: Q01DX009 (ip), vehicle: saline 105 % of control | endpoint: mean survival time, dose: 12.5 mg/kg/injection, schedule: Q01DX001 (ip), vehicle: saline with Tween-80 94 % of control | [1] 107 % of control | endpoint: mean survival time, dose: 15.0 mg/kg/injection, schedule: Q01DX009 (ip), vehicle: saline 109 % of control | endpoint: mean survival time, dose: 25.0 mg/kg/injection, schedule: Q01DX001 (ip), vehicle: saline with Tween-80 94 % of control | [2] 109 % of control | endpoint: mean survival time, dose: 50.0 mg/kg/injection, schedule: Q01DX001 (ip), vehicle: saline with Tween-80 101 % of control | [3] 101 % of control | [14] 95 % of control | [15] 89 % of control | [16] 118 % of control

COC1=CCc2c(OC)ccc(OC)c2C1
inactive: endpoint: mean survival time, dose: 12.5 mg/kg/injection, schedule: Q01DX009 (ip), vehicle: other 103 % of control | endpoint: mean survival time, dose: 25.0 mg/kg/injection, schedule: Q01DX009 (ip), vehicle: other 103 % of control | endpoint: mean survival time, dose: 50.0 mg/kg/injection, schedule: Q01DX009 (ip), vehicle: other 93 % of control | endpoint: mean survival time, dose: 100.0 mg/kg/injection, schedule: Q01DX009 (ip), vehicle: other 95 % of control | endpoint: mean survival time, dose: 200.0 mg/kg/injection, schedule: Q01DX009 (ip), vehicle: other 88 % of control

CCOC(=O)C(SC)(SC)C(=O)OCC
inactive: endpoint: mean survival time, dose: 100.0 mg/kg/injection, schedule: Q01DX001 (ip), vehicle: Klucel (hydroxypropylcellulose) (HPC) 106 % of control | endpoint: mean survival time, dose: 200.0 mg/kg/injection, schedule: Q01DX001 (ip), vehicle: Klucel (hydroxypropylcellulose) (HPC) 109 % of control | endpoint: mean survival time, dose: 400.0 mg/kg/injection, schedule: Q01DX001 (ip), vehicle: Klucel (hydroxypropylcellulose) (HPC) 103 % of control

C/C=C(\C)C(C)(C#N)Nc1ccccc1 (stereo not given)
inactive: [3] 103 % of control | [4] 100 % of control | [11] 101 % of control | [5] 102 % of control | [12] 101 % of control | [13] 95 % of control

O=C([O][Sb]([O]C(=O)C(F)(F)F)([c]1ccccc1)([c]1ccccc1)[c]1ccccc1)C(F)(F)F
inactive: endpoint: mean survival time, dose: 50.0 mg/kg/injection, schedule: Q04DX002 (ip), vehicle: saline with Tween-80 93 % of control | [7] 93 % of control | endpoint: mean survival time, dose: 200.0 mg/kg/injection, schedule: Q04DX002 (ip), vehicle: saline with Tween-80 97 % of control

CCNC(=O)N1CC2CCC(C1)N2C
inactive: [8] 101 % of control | [9] 96 % of control | [10] 90 % of control

C[NH-].C[NH-].[Br][Pt+2][Br]
inactive: endpoint: mean survival time, dose: 1.25 mg/kg/injection, schedule: Q04DX003 (ip), vehicle: water 106 % of control | endpoint: mean survival time, dose: 2.5 mg/kg/injection, schedule: Q04DX003 (ip), vehicle: water 108 % of control | endpoint: mean survival time, dose: 5.0 mg/kg/injection, schedule: Q04DX003 (ip), vehicle: water 110 % of control | endpoint: mean survival time, dose: 10.0 mg/kg/injection, schedule: Q04DX003 (ip), vehicle: water 97 % of control

CN=C(N)N/N=C(\C)c1ccc2sc3ccc(/C(C)=N/NC(N)=NC)cc3c2c1
inactive: endpoint: median survival time, dose: 25.0 mg/kg/injection, schedule: Q01DX009 (ip), vehicle: saline with Tween-80 113 % of control and 124 % of control | endpoint: median survival time, dose: 50.0 mg/kg/injection, schedule: Q01DX009 (ip), vehicle: saline with Tween-80 112 % of control | endpoint: median survival time, dose: 100.0 mg/kg/injection, schedule: Q01DX009 (ip), vehicle: saline with Tween-80 117 % of control | endpoint: median survival time, dose: 200.0 mg/kg/injection, schedule: Q01DX009 (ip), vehicle: saline with Tween-80 119 % of control | endpoint: median survival time, dose: 400.0 mg/kg/injection, schedule: Q01DX009 (ip), vehicle: saline with Tween-80 119 % of control and 102 % of control

COc1cc([C@@H]2c3cc4c(c(O)c3C[C@H]3COC(=O)[C@@H]32)OCO4)cc(OC)c1O
inactive: endpoint: mean survival time, dose: 125.0 micrograms/kg/injection, schedule: Q01DX009 (ip), vehicle: saline 102 % of control | endpoint: mean survival time, dose: 250.0 micrograms/kg/injection, schedule: Q01DX009 (ip), vehicle: saline 108 % of control | endpoint: mean survival time, dose: 500.0 micrograms/kg/injection, schedule: Q01DX009 (ip), vehicle: saline 110 % of control | endpoint: mean survival time, dose: 1000.0 micrograms/kg/injection, schedule: Q01DX009 (ip), vehicle: saline 122 % of control | endpoint: mean survival time, dose: 2000.0 micrograms/kg/injection, schedule: Q01DX009 (ip), vehicle: saline 118 % of control

CCOCC(C)(CO)CC(C)CO (stereo not given)
inactive: [17] 101 % of control | [18] 104 % of control | [19] 103 % of control

CC(Br)C(=O)c1ccc(OC(=O)c2ccccc2)cc1 (stereo not given)
inactive: [17] 100 % of control | [18] 100 % of control | [19] 100 % of control

O=C(N=C=S)c1ccccc1
inactive: endpoint: mean survival time, dose: 100.0 mg/kg/injection, schedule: Q04DX003 (ip), vehicle: other 90 % of control | endpoint: mean survival time, dose: 200.0 mg/kg/injection, schedule: Q04DX003 (ip), vehicle: other 101 % of control | endpoint: mean survival time, dose: 400.0 mg/kg/injection, schedule: Q04DX003 (ip), vehicle: other 101 % of control

CCCC/C=C/C1CCCCO1 (stereo not given)
inactive: [3] 94 % of control | [4] 97 % of control | [5] 105 % of control

NC(=S)NNc1ccccn1
inactive: endpoint: mean survival time, dose: 25.0 mg/kg/injection, schedule: Q04DX002 (ip), vehicle: saline 106 % of control | endpoint: mean survival time, dose: 50.0 mg/kg/injection, schedule: Q04DX002 (ip), vehicle: saline 108 % of control

O=S(=O)(F)c1ccc(-c2cc(Cl)c3cc(F)ccc3n2)cc1
inactive: [14] 98 % of control | [15] 98 % of control | [16] 94 % of control

N#Cc1cc([N+](=O)[O-])ccc1Cl
inactive: [3] 96 % of control | [4] 91 % of control | [11] 105 % of control | [12] 103 % of control

CCOC(=O)C(C(=S)NC)=S(C)C
inactive: endpoint: mean survival time, dose: 100.0 mg/kg/injection, schedule: Q01DX001 (ip), vehicle: other 92 % of control | endpoint: mean survival time, dose: 200.0 mg/kg/injection, schedule: Q01DX001 (ip), vehicle: other 88 % of control | endpoint: mean survival time, dose: 400.0 mg/kg/injection, schedule: Q01DX001 (ip), vehicle: other 105 % of control

O=P(O)(O)CCc1ccccc1
inactive: endpoint: mean survival time, dose: 50.0 mg/kg/injection, schedule: Q04DX003 (ip), vehicle: saline 95 % of control | [8] 90 % of control | [9] 96 % of control

c1ccc2c(P(c3cccc4ccccc34)c3cccc4ccccc34)cccc2c1
inactive: [17] 100 % of control | [18] 93 % of control | [19] 89 % of control

Cc1cccc(/C(=C\c2ccc([N+](=O)[O-])cc2)C(=O)Nc2ccc(S(=O)(=O)F)c(C)c2)c1
inactive: endpoint: mean survival time, dose: 50.0 mg/kg/injection, schedule: Q01DX009 (ip), vehicle: Klucel (hydroxypropylcellulose) (HPC) 91 % of control | endpoint: mean survival time, dose: 100.0 mg/kg/injection, schedule: Q01DX009 (ip), vehicle: Klucel (hydroxypropylcellulose) (HPC) 94 % of control | endpoint: mean survival time, dose: 200.0 mg/kg/injection, schedule: Q01DX009 (ip), vehicle: Klucel (hydroxypropylcellulose) (HPC) 112 % of control
